The text below walks through data of ChEMBL document CHEMBL5465560, “Selectivity Literature for EUbOPEN Chemogenomic Library” (2024).

Molecules are shown by their SMILES.

Experiment [1] deals with RAC-alpha serine/threonine-protein kinase (Homo sapiens, UniProt P31749). Briefly: Selectivity interaction (Upstate Kinase Profiler service (Millipore)) EUB0000056c AKT1. To be noted: at 1 µM.
The target of experiment [2] is Casein kinase I isoform delta (Homo sapiens, UniProt P48730). Put plainly: Selectivity interaction (ProQinase) EUB0000171b CSNK1D.
Experiment [3] deals with Serine/threonine-protein kinase PAK 3 (Homo sapiens) (UniProt O75914). Briefly: Selectivity interaction (Ambit KINOMEscan and KiNATiv profiling in Jurkat cells) EUB0000090b PAK3. In kind it is cell-based. The settings on record: at 1 µM.
In experiment [4] the target is Mitogen-activated protein kinase kinase kinase kinase 5 (Homo sapiens) (UniProt Q9Y4K4). To be noted: at 10 µM.
For experiment [5], the target named is T1, Mitogen-activated protein kinase kinase kinase kinase 3 (Homo sapiens) (UniProt Q8IVH8).
T1 sequence (whole entry): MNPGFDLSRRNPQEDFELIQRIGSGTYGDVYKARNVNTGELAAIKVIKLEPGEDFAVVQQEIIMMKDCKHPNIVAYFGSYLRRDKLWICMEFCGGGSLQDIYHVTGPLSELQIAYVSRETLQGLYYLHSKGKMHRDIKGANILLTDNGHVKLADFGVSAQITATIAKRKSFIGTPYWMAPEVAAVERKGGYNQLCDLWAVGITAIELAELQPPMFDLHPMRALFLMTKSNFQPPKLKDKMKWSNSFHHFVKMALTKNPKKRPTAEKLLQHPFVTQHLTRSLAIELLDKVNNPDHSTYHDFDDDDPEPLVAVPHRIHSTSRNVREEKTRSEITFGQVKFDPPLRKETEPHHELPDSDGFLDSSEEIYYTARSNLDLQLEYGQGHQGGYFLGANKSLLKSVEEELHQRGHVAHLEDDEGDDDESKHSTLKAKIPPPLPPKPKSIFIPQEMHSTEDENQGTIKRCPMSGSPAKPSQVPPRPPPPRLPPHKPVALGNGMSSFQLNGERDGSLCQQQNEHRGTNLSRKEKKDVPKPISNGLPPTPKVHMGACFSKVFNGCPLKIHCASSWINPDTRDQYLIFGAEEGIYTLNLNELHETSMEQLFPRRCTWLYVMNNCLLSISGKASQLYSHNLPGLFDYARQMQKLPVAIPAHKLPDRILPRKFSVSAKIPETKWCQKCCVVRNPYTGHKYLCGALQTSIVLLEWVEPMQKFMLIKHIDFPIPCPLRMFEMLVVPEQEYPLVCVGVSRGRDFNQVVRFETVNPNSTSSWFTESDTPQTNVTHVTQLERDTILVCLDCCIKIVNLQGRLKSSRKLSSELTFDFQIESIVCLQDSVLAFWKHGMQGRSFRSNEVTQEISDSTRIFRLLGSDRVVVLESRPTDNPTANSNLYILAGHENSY
The settings on record: at 10 µM.

Experiment [6] deals with Phosphorylase b kinase gamma catalytic chain, skeletal muscle/heart isoform (Homo sapiens) (UniProt Q16816). Put plainly: Selectivity interaction (KinomeScan (DiscoverX)) EUB0000092b PHKG1. The settings on record: at 10 µM.
In experiment [7] the target is Maternal embryonic leucine zipper kinase (Homo sapiens) (UniProt Q14680). Put plainly: Selectivity interaction (KinomeScan (DiscoverX)) EUB0000092b MELK. To be noted: at 10 µM.
The target in experiment [8] is Tyrosine-protein kinase Fer (Homo sapiens) (UniProt P16591). Put plainly: Selectivity interaction (Kinase screening (Nanosyn)) EUB0000604a FER.
Experiment [9] has as its target Leukotriene B4 receptor 1 (Homo sapiens) (UniProt Q15722). Briefly: Selectivity interaction (Eurofins CEREP Diversity Profile (receptors and ion channels)) EUB0000279b LTB4R. To be noted: at 10 µM.
Experiment [10] deals with Epidermal growth factor receptor (Homo sapiens), P00533 [UNDEFINED MUTATION]. Briefly: Selectivity interaction (KinomeScan (DiscoverX)) EUB0000045b EGFR. The settings on record: at 1 µM.
The target in experiment [11] is Mitogen-activated protein kinase 10 (Homo sapiens, UniProt P53779). Briefly: Selectivity interaction (Kinase panel (Z-LYTE Assay)) EUB0001632a MAPK10. To be noted: at 10 µM.
Experiment [12] concerns the target Cyclin-dependent kinase 20 (Homo sapiens) (UniProt Q8IZL9). Briefly: Selectivity interaction (ActivX KiNativ screen (kinase selectivity in THP-1 cell lysates)) EUB0000639a CDK20. The settings on record: lysate. Type of experiment: subcellular.
Experiment [13] concerns the target T2, Calcium/calmodulin-dependent protein kinase type IV (Homo sapiens) (UniProt Q16566).
T2 sequence (whole entry): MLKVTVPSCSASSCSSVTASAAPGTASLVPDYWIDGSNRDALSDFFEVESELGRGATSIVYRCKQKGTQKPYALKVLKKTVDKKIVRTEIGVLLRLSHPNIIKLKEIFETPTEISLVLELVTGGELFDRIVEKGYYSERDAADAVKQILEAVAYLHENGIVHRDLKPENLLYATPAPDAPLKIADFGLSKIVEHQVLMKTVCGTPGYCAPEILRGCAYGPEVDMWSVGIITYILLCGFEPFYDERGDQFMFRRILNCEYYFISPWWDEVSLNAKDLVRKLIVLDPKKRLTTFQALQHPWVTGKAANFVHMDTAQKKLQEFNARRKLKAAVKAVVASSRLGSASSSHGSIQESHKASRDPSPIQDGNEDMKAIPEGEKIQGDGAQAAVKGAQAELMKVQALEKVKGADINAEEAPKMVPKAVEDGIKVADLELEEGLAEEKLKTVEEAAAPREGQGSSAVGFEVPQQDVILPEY
Put plainly: Selectivity interaction (KinomeScan (DiscoverX)) EUB0000229b CAMK4. The settings on record: at 10 µM.

In experiment [14] the target is Ribosomal protein S6 kinase alpha-4 (Homo sapiens) (UniProt O75676). Briefly: Selectivity interaction (KinomeScan (DiscoverX)) EUB0000229b RPS6KA4. To be noted: at 10 µM.
Experiment [15] deals with Dual specificity protein kinase CLK4 (Homo sapiens, UniProt Q9HAZ1). Briefly: Selectivity interaction (KinomeScan (DiscoverX)) EUB0000229b CLK4. The settings on record: at 10 µM.
Experiment [16] addresses Protein kinase C beta type (Homo sapiens, UniProt P05771). Put plainly: Selectivity interaction (ActivX KiNativ screen (ex vivo kinase selectivity in human PBMCs)) EUB0001619a PRKCB. Type of experiment: cell-based. The settings on record: PBMC, at 1 µM.

Cyclin-dependent kinase 20 (Homo sapiens), sequence (Q8IZL9 whole entry): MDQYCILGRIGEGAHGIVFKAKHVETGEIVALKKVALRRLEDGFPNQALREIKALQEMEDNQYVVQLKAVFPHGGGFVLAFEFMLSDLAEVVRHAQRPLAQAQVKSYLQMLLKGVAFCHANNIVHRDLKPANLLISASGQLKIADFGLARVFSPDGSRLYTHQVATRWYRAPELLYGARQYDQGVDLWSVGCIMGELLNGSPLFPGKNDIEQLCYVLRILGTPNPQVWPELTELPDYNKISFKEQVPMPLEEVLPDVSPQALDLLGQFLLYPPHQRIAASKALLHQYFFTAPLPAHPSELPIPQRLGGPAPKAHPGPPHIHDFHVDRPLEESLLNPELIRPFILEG
Casein kinase I isoform delta, sequence (P48730 whole entry, looked up, canonical isoform): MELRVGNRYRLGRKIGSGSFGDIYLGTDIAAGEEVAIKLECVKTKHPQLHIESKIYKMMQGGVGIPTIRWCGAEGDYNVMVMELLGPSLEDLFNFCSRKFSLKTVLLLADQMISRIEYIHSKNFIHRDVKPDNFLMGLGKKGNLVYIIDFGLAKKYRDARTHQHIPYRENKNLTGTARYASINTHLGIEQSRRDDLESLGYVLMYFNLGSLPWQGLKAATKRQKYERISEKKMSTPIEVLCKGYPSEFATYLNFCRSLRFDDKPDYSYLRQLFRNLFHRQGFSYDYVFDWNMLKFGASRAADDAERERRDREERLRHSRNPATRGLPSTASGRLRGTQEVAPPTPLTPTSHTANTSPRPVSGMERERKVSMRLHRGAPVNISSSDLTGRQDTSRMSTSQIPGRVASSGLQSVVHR
Dual specificity protein kinase CLK4, sequence (Q9HAZ1 whole entry, looked up): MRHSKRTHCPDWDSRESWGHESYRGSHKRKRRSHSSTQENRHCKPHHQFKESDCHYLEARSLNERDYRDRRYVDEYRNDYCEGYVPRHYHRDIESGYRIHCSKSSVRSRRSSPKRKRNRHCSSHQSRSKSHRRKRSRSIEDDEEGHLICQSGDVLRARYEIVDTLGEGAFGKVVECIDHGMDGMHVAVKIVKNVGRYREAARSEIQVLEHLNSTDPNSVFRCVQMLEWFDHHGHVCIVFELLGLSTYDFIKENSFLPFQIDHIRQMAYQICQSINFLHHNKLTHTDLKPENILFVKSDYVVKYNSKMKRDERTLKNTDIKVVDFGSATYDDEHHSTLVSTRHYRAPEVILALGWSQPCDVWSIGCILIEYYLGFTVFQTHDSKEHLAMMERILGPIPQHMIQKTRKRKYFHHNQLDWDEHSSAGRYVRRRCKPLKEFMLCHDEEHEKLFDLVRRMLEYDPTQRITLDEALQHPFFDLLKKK
Ribosomal protein S6 kinase alpha-4 (Homo sapiens), sequence (O75676 whole entry, looked up): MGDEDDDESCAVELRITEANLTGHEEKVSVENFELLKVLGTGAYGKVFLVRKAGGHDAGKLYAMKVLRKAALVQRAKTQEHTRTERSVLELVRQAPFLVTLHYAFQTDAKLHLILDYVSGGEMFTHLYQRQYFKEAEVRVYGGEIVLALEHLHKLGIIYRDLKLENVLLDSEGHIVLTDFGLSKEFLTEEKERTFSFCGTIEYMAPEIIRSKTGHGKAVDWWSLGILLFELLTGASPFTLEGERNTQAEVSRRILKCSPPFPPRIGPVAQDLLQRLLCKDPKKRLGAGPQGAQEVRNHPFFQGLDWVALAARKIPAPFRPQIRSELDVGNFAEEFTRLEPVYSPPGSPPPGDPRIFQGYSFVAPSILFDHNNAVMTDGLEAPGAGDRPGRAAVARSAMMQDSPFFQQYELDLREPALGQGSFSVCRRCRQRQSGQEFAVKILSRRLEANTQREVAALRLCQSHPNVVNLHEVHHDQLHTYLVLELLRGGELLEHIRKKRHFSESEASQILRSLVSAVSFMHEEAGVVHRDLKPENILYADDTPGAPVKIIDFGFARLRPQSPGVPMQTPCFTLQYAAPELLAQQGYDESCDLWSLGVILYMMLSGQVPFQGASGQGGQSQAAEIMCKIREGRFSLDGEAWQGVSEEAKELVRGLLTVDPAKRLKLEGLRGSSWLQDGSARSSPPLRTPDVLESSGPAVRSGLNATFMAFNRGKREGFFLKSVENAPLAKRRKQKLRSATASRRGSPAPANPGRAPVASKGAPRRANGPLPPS
Mitogen-activated protein kinase kinase kinase kinase 5 (Homo sapiens), sequence (Q9Y4K4 whole entry, looked up): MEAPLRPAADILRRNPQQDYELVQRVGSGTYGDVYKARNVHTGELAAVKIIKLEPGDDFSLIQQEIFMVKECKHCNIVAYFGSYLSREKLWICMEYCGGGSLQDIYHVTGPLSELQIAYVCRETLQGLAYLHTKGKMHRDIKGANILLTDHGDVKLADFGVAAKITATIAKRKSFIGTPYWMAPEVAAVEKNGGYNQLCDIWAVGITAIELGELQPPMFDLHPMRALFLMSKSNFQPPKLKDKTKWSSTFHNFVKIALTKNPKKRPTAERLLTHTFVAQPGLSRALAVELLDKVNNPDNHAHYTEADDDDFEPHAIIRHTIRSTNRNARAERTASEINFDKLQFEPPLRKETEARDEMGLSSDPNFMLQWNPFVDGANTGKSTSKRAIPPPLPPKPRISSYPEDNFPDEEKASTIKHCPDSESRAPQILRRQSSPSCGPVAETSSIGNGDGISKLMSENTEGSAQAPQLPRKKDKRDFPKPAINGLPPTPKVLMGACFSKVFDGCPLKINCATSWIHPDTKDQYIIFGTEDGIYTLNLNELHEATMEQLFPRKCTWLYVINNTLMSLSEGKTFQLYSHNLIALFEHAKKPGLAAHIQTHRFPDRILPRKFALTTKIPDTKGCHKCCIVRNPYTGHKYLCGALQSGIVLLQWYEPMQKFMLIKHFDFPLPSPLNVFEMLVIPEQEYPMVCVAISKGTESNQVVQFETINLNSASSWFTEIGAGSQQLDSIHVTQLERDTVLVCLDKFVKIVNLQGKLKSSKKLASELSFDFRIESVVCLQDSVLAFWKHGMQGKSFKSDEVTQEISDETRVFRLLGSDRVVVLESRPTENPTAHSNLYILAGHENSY
Epidermal growth factor receptor (Homo sapiens), P00533 [UNDEFINED MUTATION], sequence (P00533 whole entry, looked up, change not shown): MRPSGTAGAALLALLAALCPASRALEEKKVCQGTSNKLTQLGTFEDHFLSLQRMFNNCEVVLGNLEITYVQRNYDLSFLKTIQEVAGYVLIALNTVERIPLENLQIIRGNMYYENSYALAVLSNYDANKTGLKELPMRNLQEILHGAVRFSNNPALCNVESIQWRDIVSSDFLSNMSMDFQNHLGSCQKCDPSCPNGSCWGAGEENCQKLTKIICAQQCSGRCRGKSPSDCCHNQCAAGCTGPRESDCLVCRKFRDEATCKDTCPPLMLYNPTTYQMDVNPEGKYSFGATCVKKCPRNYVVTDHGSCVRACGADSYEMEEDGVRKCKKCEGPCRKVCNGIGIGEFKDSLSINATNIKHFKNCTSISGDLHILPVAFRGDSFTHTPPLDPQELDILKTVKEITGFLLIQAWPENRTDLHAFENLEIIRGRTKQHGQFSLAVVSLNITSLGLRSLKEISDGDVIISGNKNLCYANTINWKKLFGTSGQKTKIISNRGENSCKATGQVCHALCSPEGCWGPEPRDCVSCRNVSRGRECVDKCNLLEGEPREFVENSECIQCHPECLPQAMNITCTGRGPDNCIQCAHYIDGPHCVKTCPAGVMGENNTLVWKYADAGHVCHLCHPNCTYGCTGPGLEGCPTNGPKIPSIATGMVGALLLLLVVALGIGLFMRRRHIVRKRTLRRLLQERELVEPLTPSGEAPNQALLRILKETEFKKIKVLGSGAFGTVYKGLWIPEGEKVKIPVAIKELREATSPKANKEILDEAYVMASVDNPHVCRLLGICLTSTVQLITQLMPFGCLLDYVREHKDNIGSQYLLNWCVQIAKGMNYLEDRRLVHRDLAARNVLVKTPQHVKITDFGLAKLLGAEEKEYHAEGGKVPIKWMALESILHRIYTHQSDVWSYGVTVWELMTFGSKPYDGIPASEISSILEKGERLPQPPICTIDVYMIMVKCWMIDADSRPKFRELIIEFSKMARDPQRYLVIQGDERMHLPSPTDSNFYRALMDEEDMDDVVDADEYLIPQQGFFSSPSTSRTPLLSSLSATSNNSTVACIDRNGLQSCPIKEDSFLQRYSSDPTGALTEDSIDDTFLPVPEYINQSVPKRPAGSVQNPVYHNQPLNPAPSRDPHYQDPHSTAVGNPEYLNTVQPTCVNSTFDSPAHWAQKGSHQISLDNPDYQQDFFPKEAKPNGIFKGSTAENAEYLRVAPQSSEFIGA
Protein kinase C beta type, sequence (P05771 2-671 limits assumed): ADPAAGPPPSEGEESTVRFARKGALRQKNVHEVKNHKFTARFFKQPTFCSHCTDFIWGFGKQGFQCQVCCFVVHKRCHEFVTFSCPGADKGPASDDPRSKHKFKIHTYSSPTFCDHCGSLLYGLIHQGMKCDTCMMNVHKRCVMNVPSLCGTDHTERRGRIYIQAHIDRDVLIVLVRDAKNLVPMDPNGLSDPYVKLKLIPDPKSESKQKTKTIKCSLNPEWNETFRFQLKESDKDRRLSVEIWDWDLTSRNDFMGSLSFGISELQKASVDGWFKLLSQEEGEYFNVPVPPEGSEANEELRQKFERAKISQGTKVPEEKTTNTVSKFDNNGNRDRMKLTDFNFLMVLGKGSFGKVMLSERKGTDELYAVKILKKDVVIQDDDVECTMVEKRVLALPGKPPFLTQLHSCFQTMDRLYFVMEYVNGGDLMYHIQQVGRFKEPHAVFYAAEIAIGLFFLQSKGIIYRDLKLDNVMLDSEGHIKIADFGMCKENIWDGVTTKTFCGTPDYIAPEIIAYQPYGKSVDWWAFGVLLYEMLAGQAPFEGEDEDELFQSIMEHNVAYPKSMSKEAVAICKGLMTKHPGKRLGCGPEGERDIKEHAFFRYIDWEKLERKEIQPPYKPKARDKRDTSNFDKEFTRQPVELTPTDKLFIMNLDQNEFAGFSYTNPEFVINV

As for `Cc1ccc(-c2ccc3c(ccc4sc5c(c43)NC[C@@H](C)NC5=O)n2)cn1`, the % of inhibition in [1] is -3%.
Regarding `C=CC(=O)Nc1cccc(C(=O)Nc2ccc(Nc3cc(-c4[nH]c(SC)nc4C)ccn3)cc2)c1`, the % of control in experiment [2] (at 1 µM) stood at 13%; in experiment [2] (at 5 µM) it was 3%.
The compound `CN(C)C/C=C/C(=O)Nc1ccc(C(=O)N2CCCC(Nc3ncc(Cl)c(-c4c[nH]c5ccccc45)n3)C2)cc1` (stereo unspecified) showed a % of control in [3] of 80%.
In the case of `CCN(CC)CCCCNc1ncc2cc(-c3cc(OC)cc(OC)c3)c(NC(=O)NC(C)(C)C)nc2n1`, the % of control in experiment [4] and in [5] was 100% each time.
Turning to `CCC(=O)N1CCN(c2ccc(-n3c(=O)ccc4cnc5ccc(-c6cnc7ccccc7c6)cc5c43)cc2C(F)(F)F)CC1`, the % of control stood at 100% in experiment [6] and 50% in experiment [7].
As to `Cc1cnc(Nc2ccc(F)cc2Cl)nc1-c1c[nH]c(C(=O)N[C@H](CO)c2cccc(Cl)c2)c1`, the % of inhibition in [8] is 3%.
As for `CC(=O)c1cc(-c2ccccc2OCC2CC2)c2ncccn12`, the % of control in experiment [9] came to 96%.
The compound `C=CC(=O)Nc1cc(-n2c(=O)ccc3cnc4ccc(-c5ccc(NS(C)(=O)=O)cc5)cc4c32)ccc1C` yielded a % of control in experiment [10] of 66%.
As to `Cn1cc(-n2cnc3c(NCc4nc5cc(Cl)c(Cl)cc5[nH]4)nc(N4CCOCC4)nc32)cn1`, the % of control in experiment [11] was 3.04%.
Regarding `CC[C@@H]1[C@H](F)C(=O)N[C@@H]1COc1nccc2cc(C(N)=O)c(OC)cc12` [ZIMLOVISERTIB], the % of inhibition is 6.4% in experiment [12] (at 0.01 µM); -8.7% in [12] (at 0.04 µM); -2% in experiment [12] (at 0.2 µM); -0.8% in experiment [12] (at 1 µM); -1.4% in experiment [12] (at 5 µM).
For the compound `COc1cc(N(C)c2ccnc3ccc(C(F)(F)F)cc23)cc(OC)c1OC`, the % binding in experiment [13] was 98%; in experiment [14], 72%; in [15], 88%.
For the compound `N#Cc1cccc(-c2c[nH]c3ncnc(N4CCOCC4)c23)c1`, in [16], the % of inhibition turned out to be 57%.
